Experimental findings from patent US9056874B2, “Complement pathway modulators and uses thereof” (NOVARTIS AG, priority 2012, dated 2015) are described below.

In the assay the target is factor B (Homo sapiens, UniProt P00751). As to the kind of experiment: factor B inhibition assay of Biological Example 1. The settings on record: IC50 (nM), assay of Biological Example 1 (Table 1). More on the design: CVF-Bb complex prepared from purified cobra venom factor (1 μM), recombinant human complement factor B; made in house; host or cells: drosophila cells (factor B); E. coli (factor D used to form the complex). Format: biochemical.

Each structure is given as a SMILES string.

factor B, sequence (P00751 260-764 limits assumed): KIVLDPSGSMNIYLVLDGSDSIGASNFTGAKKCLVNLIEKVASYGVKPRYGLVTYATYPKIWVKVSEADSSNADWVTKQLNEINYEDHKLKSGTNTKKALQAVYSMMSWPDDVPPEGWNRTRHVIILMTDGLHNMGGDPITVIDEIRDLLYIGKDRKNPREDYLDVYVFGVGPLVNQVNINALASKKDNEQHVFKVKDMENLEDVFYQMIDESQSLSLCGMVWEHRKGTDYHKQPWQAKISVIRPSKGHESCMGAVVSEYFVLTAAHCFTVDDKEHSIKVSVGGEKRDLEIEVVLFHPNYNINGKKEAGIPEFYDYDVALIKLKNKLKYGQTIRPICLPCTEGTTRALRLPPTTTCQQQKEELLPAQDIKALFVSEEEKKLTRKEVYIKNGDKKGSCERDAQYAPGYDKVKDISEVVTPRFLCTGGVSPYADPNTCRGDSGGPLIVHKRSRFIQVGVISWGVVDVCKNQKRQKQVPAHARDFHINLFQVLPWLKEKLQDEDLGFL
factor B, sequence (Q91132 23-649 partner limits assumed): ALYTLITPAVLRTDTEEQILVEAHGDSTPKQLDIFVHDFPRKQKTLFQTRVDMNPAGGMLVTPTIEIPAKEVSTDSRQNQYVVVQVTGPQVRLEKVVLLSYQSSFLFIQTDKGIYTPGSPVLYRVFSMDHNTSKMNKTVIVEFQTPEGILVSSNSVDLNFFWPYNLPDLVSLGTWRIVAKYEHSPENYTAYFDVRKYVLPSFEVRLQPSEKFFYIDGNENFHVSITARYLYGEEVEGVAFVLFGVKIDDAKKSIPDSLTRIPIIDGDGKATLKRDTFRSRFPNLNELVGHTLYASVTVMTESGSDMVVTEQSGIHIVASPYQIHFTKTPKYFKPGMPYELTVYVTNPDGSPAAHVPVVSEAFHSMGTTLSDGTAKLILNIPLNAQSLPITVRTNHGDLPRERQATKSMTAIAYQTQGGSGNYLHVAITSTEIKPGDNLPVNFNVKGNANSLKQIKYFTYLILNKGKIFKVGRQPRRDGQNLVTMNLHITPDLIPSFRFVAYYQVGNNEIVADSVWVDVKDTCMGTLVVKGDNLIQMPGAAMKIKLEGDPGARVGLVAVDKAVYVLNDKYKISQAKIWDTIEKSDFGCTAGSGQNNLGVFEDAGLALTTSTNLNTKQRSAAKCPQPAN
factor B, sequence (Q91132 733-984 partner limits assumed): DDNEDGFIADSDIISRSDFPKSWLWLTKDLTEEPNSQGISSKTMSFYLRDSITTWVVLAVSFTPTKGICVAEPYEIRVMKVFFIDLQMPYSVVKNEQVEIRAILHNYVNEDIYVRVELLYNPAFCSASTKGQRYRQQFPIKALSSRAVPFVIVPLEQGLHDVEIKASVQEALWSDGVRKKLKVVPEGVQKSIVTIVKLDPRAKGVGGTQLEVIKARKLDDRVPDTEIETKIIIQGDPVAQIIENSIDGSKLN
factor B, sequence (Q91132 1264-1642 partner limits assumed): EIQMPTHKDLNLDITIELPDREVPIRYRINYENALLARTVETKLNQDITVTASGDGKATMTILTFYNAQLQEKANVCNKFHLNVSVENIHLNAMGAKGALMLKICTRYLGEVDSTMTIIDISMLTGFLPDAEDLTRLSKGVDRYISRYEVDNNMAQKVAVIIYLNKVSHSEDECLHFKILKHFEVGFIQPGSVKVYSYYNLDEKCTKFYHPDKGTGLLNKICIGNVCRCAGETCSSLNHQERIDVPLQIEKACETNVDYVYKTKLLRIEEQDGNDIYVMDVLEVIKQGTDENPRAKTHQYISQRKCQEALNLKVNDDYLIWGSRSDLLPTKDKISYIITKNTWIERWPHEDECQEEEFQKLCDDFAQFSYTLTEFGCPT

The IC50 is the midpoint of a concentration-inhibition curve. With `Cc1cc(OC(F)F)c(C(NCCN)c2nc3cc(C#N)ccc3[nH]2)c2cc[nH]c12` (racemic) [3-B a) 2nd compound, (±)-2-(((2-aminoethyl)amino)(5-(difluoromethoxy)-7-methyl-1H-indol-4-yl)methyl)-1H-benzo[d]imidazole-5-carbonitrile], the IC50 was 2700 nM.
In the case of `Cc1cc(OC(F)F)c(C(C)(O)c2nc3cc(C#N)ccc3[nH]2)c2cc[nH]c12` (racemic) [6-B b) (+), (+)-2-(1-(5-(difluoromethoxy)-7-methyl-1H-indol-4-yl)-1-hydroxyethyl)-1H-benzo[d]imidazole-5-carbonitrile], the IC50 stood at 140 nM.
To `Cc1cc(OC(F)F)c(C(C)(O)c2nc3cc(C#N)ccc3[nH]2)c2cc[nH]c12` (racemic) [6-B b) (−), (−)-2-(1-(5-(difluoromethoxy)-7-methyl-1H-indol-4-yl)-1-hydroxyethyl)-1H-benzo[d]imidazole-5-carbonitrile] belongs 110 nM; to `COc1cc(C)c2[nH]ccc2c1C(C)(O)c1nc2cc(C#N)ccc2[nH]1` (racemic) [26-C b) (+), (+)-2-(1-hydroxy-1-(5-methoxy-7-methyl-1H-indol-4-yl)ethyl)-1H-benzo[d]imidazole-5-carbonitrile], 50 nM.
To `COc1cc(C)c2[nH]ccc2c1C(C)(O)c1nc2cc(C#N)ccc2[nH]1` (racemic) [26-C b) (−), (−)-2-(1-hydroxy-1-(5-methoxy-7-methyl-1H-indol-4-yl)ethyl)-1H-benzo[d]imidazole-5-carbonitrile] belongs 80 nM.
Next, `COc1cc(C)c2[nH]ccc2c1C(OC)c1nc2cc(C#N)ccc2[nH]1` (racemic) [30-B b) (+), (+)-2-(methoxy(5-methoxy-7-methyl-1H-indol-4-yl)methyl)-1H-benzo[d]imidazole-5-carbonitrile]: 220 nM; `COc1cc(C)c2[nH]ccc2c1C(OC)c1nc2cc(C#N)ccc2[nH]1` (racemic) [30-B b) (−), (−)-2-(methoxy(5-methoxy-7-methyl-1H-indol-4-yl)methyl)-1H-benzo[d]imidazole-5-carbonitrile]: 160 nM.
For `COC(=O)COC(c1nc2cc(C#N)ccc2[nH]1)(c1c(OC)cc(C)c2[nH]ccc12)C(F)(F)F` (racemic) [35-B a), (±)-Methyl 2-(1-(5-cyano-1H-benzo[d]imidazol-2-yl)-2,2,2-trifluoro-1-(5-methoxy-7-methyl-1H-indol-4-yl)ethoxy)acetate], the IC50 is 70 nM.
To `COc1cc(C)c2[nH]ccc2c1C(N)(c1nc2cc(C#N)ccc2[nH]1)C(F)(F)F` (racemic) [36-E b) (+), (+)-2-(1-amino-2,2,2-trifluoro-1-(5-methoxy-7-methyl-1H-indol-4-yl)ethyl)-1H-benzo[d]imidazole-5-carbonitrile] belongs 50 nM; to `CCCc1cc(C)c2[nH]ccc2c1C(C)(O)c1nc2cc(C#N)ccc2[nH]1` (racemic) [79-B a) 2nd compound, (±)-2-(1-hydroxy-1-(7-methyl-5-propyl-1H-indol-4-yl)ethyl)-1H-benzo[d]imidazole-5-carbonitrile], 150 nM.
As for `Cc1cc(C)c2[nH]ccc2c1C(C)(N)c1nc2cc(C#N)ccc2[nH]1` (racemic) [101-E b) (+), (+)-2-(1-amino-1-(5,7-dimethyl-1H-indol-4-yl)ethyl)benzo[d]imidazole-5-carbonitrile], the IC50 turned out to be 80 nM.
Next, `Cc1cc(C)c2[nH]ccc2c1C(C)(N)c1nc2cc(C#N)ccc2[nH]1` (racemic) [101-E b) (−), (−)-2-(1-amino-1-(5,7-dimethyl-1H-indol-4-yl)ethyl)benzo[d]imidazole-5-carbonitrile]: 50 nM; `COc1cc(C)c2[nH]ccc2c1C(C)(O)c1nc2cc(C#N)ccc2o1` (racemic) [126-C a), (±)-2-(1-hydroxy-1-(5-methoxy-7-methyl-1H-indol-4-yl)ethyl)benzo[d]oxazole-5-carbonitrile]: 8 nM; `COc1cc(C)c2[nH]ccc2c1C(C)(OC)c1nc2cc(C#N)ccc2o1` (racemic) [127-B a), (±)-2-(1-methoxy-1-(5-methoxy-7-methyl-1H-indol-4-yl)ethyl)benzo[d]oxazole-5-carbonitrile]: 330 nM.
`CNC(c1nc2cc(C#N)ccc2[nH]1)c1c(OC(F)F)cc(C)c2[nH]ccc12` (racemic) [Example 4, (±)-2-((5-(Difluoromethoxy)-7-methyl-1H-indol-4-yl)(methylamino)methyl)-1H-benzo[d]imidazole-5-carbonitrile]: the IC50 was found to be 570 nM.
Next, `Cc1cc(S(C)(=O)=O)c(C(O)c2nc3cc(C#N)ccc3[nH]2)c2cc[nH]c12` (racemic) [Example 10-C, (±)-2-(Hydroxy(7-methyl-5-(methylsulfonyl)-1H-indol-4-yl)methyl)-1H-benzo[d]imidazole-5-carbonitrile]: 1360 nM; `COCC(C)Oc1cc(C)c2[nH]ccc2c1Cc1nc2cc(C#N)ccc2[nH]1` (racemic) [Example 23, (±)-2-((5-((1-Methoxypropan-2-yl)oxy)-7-methyl-1H-indol-4-yl)methyl)-1H-benzo[d]imidazole-5-carbonitrile]: 2650 nM.
`Cc1cc(OCC(N)=O)c(C(C)(O)c2nc3cc(C#N)ccc3[nH]2)c2cc[nH]c12` (racemic) [Example 31-C, (±)-2-((4-(1-(5-Cyano-1H-benzo[d]imidazol-2-yl)-1-hydroxyethyl)-7-methyl-1H-indol-5-yl)oxy)acetamide]: the IC50 came out at 430 nM.
Turning to `Cc1cc(OCC(=O)O)c(C(C)(O)c2nc3cc(C#N)ccc3[nH]2)c2cc[nH]c12` (racemic) [Example 32-B, (±)-2-((4-(1-(5-Cyano-1H-benzo[d]imidazol-2-yl)-1-hydroxyethyl)-7-methyl-1H-indol-5-yl)oxy)acetic acid], the IC50 was 1410 nM.
Next, `Cc1cc(OC(C)C)c(C(N)(c2nc3cc(C#N)ccc3[nH]2)C(F)(F)F)c2cc[nH]c12` (racemic) [Example 37, (±)-2-(1-Amino-2,2,2-trifluoro-1-(5-isopropoxy-7-methyl-1H-indol-4-yl)ethyl)-1H-benzo[d]imidazole-5-carbonitrile]: 30 nM; `COc1cc(C)c2[nH]ccc2c1C(c1nc2cc(C#N)ccc2[nH]1)(N(C)C)C(F)(F)F` (racemic) [Example 38-C, (±)-2-(1-(Dimethylamino)-2,2,2-trifluoro-1-(5-methoxy-7-methyl-1H-indol-4-yl)ethyl)-1H-benzo[d]imidazole-5-carbonitrile]: 490 nM.
Consider `Cc1cc(OC(C)C)c(C(N)c2nc3cc(C#N)ccc3[nH]2)c2cc[nH]c12` (racemic) [Example 40, (±)-2-(Amino(5-isopropoxy-7-methyl-1H-indol-4-yl)methyl)-1H-benzo[d]imidazole-5-carbonitrile], for which the IC50 came to 50 nM.
To `COc1cc(C)c2[nH]ccc2c1C(c1nc2cc(C#N)ccc2[nH]1)N(C)C` (racemic) [Example 43-C, (±)-2-((Dimethylamino)(5-methoxy-7-methyl-1H-indol-4-yl)methyl)-1H-benzo[d]imidazole-5-carbonitrile] belongs 1180 nM; to `CCOc1cc(C)c2[nH]ccc2c1C(CN)c1nc2cc(C#N)ccc2[nH]1` (racemic) [Example 44-C, (±)-2-(2-amino-1-(5-ethoxy-7-methyl-1H-indol-4-yl)ethyl)-1H-benzo[d]imidazole-5-carbonitrile], 870 nM; to `CCOc1cc(C)c2[nH]ccc2c1C(CNC)c1nc2cc(C#N)ccc2[nH]1` (racemic) [Example 45, (±)-2-(1-(5-ethoxy-7-methyl-1H-indol-4-yl)-2-(methylamino)ethyl)-1H-benzo[d]imidazole-5-carbonitrile], 1040 nM.
To `COC(c1nc2cc(C#N)ccc2[nH]1)c1c(C)cc(C)c2[nH]ccc12` (racemic) [Example 68-B, (±)-2-((5,7-Dimethyl-1H-indol-4-yl)(methoxy)methyl)-1H-benzo[d]imidazole-5-carbonitrile] belongs 200 nM; to `Cc1cc(C)c2[nH]ccc2c1C(OCC(=O)O)c1nc2cc(C#N)ccc2[nH]1` (racemic) [Example 69, (±)-2-((5-cyano-1H-benzo[d]imidazol-2-yl)(5,7-dimethyl-1H-indol-4-yl)methoxy)acetic acid], 3630 nM.
Next, `CCOC(c1nc2cc(C#N)ccc2[nH]1)c1c(C)cc(C)c2[nH]ccc12` (racemic) [Example 73, (±)-2-((5,7-Dimethyl-1H-indol-4-yl)(ethoxy)methyl)-1H-benzo[d]imidazole-5-carbonitrile]: 1270 nM; `COCCOC(c1nc2cc(C#N)ccc2[nH]1)c1c(C)cc(C)c2[nH]ccc12` (racemic) [Example 74, (±)-2-((5,7-Dimethyl-1H-indol-4-yl)(2-methoxyethoxy)methyl)benzo[d]imidazole-5-carbonitrile]: 1870 nM.
For `Cc1cc(C)c2[nH]ccc2c1C(C)c1nc2cc(C#N)ccc2[nH]1` (racemic) [Example 75-D, (±)-2-(1-(5,7-Dimethyl-1H-indol-4-yl)ethyl)-1H-benzo[d]imidazole-5-carbonitrile], the IC50 is 470 nM.
Next, `Cc1cc2c(c3cc[nH]c13)C(c1nc3cc(C#N)ccc3[nH]1)(C(F)(F)F)OC2=O` (racemic) [Example 81-D, (±)-2-(5-Methyl-3-oxo-1-(trifluoromethyl)-3,6-dihydro-1H-furo[3,4-e]indol-1-yl)-1H-benzo[d]imidazole-5-carbonitrile]: 2930 nM.
Next, `Cc1cc(CO)c(C(O)(c2nc3cc(C#N)ccc3[nH]2)C(F)(F)F)c2cc[nH]c12` (racemic) [Example 81-E, (±)-2-(2,2,2-Trifluoro-1-hydroxy-1-(5-(hydroxymethyl)-7-methyl-1H-indol-4-yl)ethyl)-1H-benzo[d]imidazole-5-carbonitrile]: 1640 nM.
